Tests used:
[1] = target: RsiGRr(27-106) (Rubrobacter radiotolerans); experiment: crystal structure; apo RsiGRr crystal form 2; 0.1 sodium acetate pH 4.5, 2.5 M NaCl, 0.2 M lithium sulfate, 0.1 M MgCl2; molecular replacement, 2.55 Å
[2] = target: T1, RsiGRr+WhiGRr; Rr (RsiG)2–(c-di-GMP)2–WhiG complex (Rubrobacter radiotolerans, UniProt A0A023X3C8+Z9BF25KB68); experiment: fluorescence polarization; assay type: binding; conditions: 25 mM Tris-HCl pH 7.5, 150 mM NaCl, 25 °C, 1 nM probe; RsiG with WhiG; labelled compound
T1 construct: RsiG and WhiG coexpressed from pCOLADuet-1 in E. coli C41(DE3), His-tag on RsiG cut with thrombin; complex of RsiG homodimer and one WhiG
T1 sequence (Z9BF25KB68 1-118): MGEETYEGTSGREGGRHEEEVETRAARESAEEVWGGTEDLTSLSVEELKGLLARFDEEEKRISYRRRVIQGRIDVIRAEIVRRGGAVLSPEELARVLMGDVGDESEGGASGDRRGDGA
T1 sequence (A0A023X3C8 1-273): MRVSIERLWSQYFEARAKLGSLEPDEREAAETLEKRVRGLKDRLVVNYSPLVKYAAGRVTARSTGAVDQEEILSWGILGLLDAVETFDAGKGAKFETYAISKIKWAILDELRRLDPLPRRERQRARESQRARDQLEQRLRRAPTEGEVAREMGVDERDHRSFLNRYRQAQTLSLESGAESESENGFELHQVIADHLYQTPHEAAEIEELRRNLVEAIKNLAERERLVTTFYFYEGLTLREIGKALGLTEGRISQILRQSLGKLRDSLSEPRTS

[3] = target: T2, RsiGRr (Rubrobacter radiotolerans, UniProt Z9BF25KB68); experiment: fluorescence polarization; assay type: binding; conditions: 25 mM Tris-HCl pH 7.5, 150 mM NaCl, 25 °C, 1 nM probe; RsiG alone; labelled compound
T2 construct: full-length single-motif RsiG, 118 residues (a 27-106 construct was made for apo crystals only); pET15b, E. coli C41(DE3), His-tag cut with thrombin; homodimer
T2 sequence (Z9BF25KB68 1-118): T1 sequence (Z9BF25KB68 1-118)

[4] = target: T3, RsiGCw+WhiGCw (Conexibacter woesei, UniProt D3EZE5); experiment: fluorescence polarization; assay type: binding; conditions: 25 mM Tris-HCl pH 7.5, 150 mM NaCl, 25 °C, 1 nM probe; RsiG with WhiG; labelled compound
T3 construct: gene Cwoe_3492; RsiG and WhiG coexpressed from pCOLADuet-1 in E. coli C41(DE3), His-tag on RsiG cut with thrombin; stoichiometry by analogy with the R. radiotolerans complex
T3 sequence (D3EZE5 1-84): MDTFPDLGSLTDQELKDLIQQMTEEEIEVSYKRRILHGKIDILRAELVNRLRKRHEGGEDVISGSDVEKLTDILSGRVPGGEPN
T3 sequence (UPI0011D1D740 1-268 partner): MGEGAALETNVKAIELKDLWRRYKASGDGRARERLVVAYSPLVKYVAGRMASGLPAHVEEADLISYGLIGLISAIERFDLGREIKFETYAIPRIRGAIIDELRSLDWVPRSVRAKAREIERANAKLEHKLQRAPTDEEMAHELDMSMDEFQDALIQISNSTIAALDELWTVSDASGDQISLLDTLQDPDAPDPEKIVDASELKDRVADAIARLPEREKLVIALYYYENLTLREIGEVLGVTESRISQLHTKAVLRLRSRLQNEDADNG

[5] = target: T4, RsiGCw (Conexibacter woesei, UniProt D3EZE5); experiment: fluorescence polarization; assay type: binding; conditions: 25 mM Tris-HCl pH 7.5, 150 mM NaCl, 25 °C, 1 nM probe; RsiG alone; labelled compound
T4 construct: gene Cwoe_3492; full-length single-motif RsiG; pET15b, E. coli C41(DE3), His-tag cut with thrombin; homodimer (two-hybrid)
T4 sequence (D3EZE5 1-84): T3 sequence (D3EZE5 1-84)

[6] = target: RsiG from Rubrobacter radiotolerans (RsiGRr), co-purified with WhiGRr, His-tag cleaved (Rubrobacter radiotolerans); experiment: crystal structure; Rr (RsiG)2-(c-di-GMP)2-WhiG complex, 2.93 Å; 0.1 M Tris pH 8.0, 0.2 M MgCl2, 23% PEG 3350; c-di-GMP copurified from E. coli, none added
[7] = target: RsiGRr(27-106) (L52M-I69M), selenomethionine substituted (Rubrobacter radiotolerans); experiment: crystal structure; apo RsiGRr crystal form 1; 0.1 M imidazole pH 8.0, 12% isopropyl alcohol, 0.1 M MgCl2; selenomethionine SAD, 1.86 Å; six molecules in the ASU forming three dimers

## RsiGRr(27-106) (domain or fragment)
[1]
  stoichiometry N: 2

## 2′-O-(6-[Fluoresceinyl]aminohexylcarbamoyl)-cyclic diguanosine monophosphate [2′-Fluo-AHC–c-di-GMP]
[2]
  Kd: 0.9 ± 0.05 µM
[3]
  Kd: 12 ± 3 µM
[4]
  Kd: 1.7 ± 0.3 µM
[5]
  Kd: 25 ± 2 µM

## RsiG from Rubrobacter radiotolerans (RsiGRr), co-purified with WhiGRr, His-tag cleaved (natural protein)
[6]
  stoichiometry N: 2

## RsiGRr(27-106) (L52M-I69M), selenomethionine substituted (domain or fragment)
[7]
  stoichiometry N: 2

Source: article PMC8325347, “Evolution of a σ–(c-di-GMP)–anti-σ switch” (Proceedings of the National Academy of Sciences of the …, 2021)
